Assays:
[1] = biological target: récepteur des benzodiazépines; test: Displacement of 3H-flunitrazepam from its receptor in rat cortex tissue (in vitro); type: binding; details: for IC50: 3H-flunitrazépam 4 nM, cortex du Rat, 0°, 60 mn, pH 7,4
Text: Pour déterminer l'activité pharmacologique des molécules de cette invention, leur affinité pour le récepteur des benzodiazépines a d'abord été étudiée. Cette affinité est déterminée par l'aptitude de la molécule à déplacer une benzodiazépine radioactive (le flunitrazépam tritié) de son récepteur.
Ce pouvoir de déplacement de la molécule est indiqué par son IC50, c'est-à-dire la concentration du produit nécessaire pour déplacer 50 % des liaisons spécifiques du ^3H-flunitrazépam avec son récepteur, à partir de tissus préparés du cerveau du Rat.
Pour ces essais in vitro, il s'agit d'incuber à 0° pour 60 mn une suspension de tissus provenant du cortex du Rat (= 10 mg de tissu par échantillon) dans un milieu tamponné (pH 7,4, 0,05 M Tris-HCl) en présence d'une concentration fixe de ^3H-flunitrazépam (= 4 nM, 89 Ci/mmole) et d'une concentration variable du produit (10^-3 à 10^-9 M). La suspension est ensuite filtrée et la radioactivité restant sur le filtre est déterminée par scintillation. L'information obtenuepermet de dessiner une courbe de déplacement contre la concentration du produit et de calculer l'IC50 du produit.

Babouin photosensible [2] = details: comparison; cited from earlier work
souris [3] = test: Conflict test (Skinner box), anxiolytic effect of diazepam in mice; type: in vivo
Experimental: ③. Absence d'effet antagoniste sur les effets anxiolytiques du diazépam : • 9 souris ont été entraînées dans un test de conflit décrit par PRADO et al. (Nature 301, 64-66, 1983). En bref les animaux privés de nourriture sont soumis à des séances quotidiennes de 15 minutes dans une boîte de Skinner. Ces sessions comprennent successivement : 5 mn sans conflit (où la souris reçoit une boulette de nourriture chaque fois qu'elle appuie sur la pédale), 5 mn de conflit (où l'appui sur la pédale entraîne à la fois la délivrance d'une boulette et un choc électrique léger), 5 mn sans conflit. Les performances des souris (nombre d'appuis/mn) baissent durant les phases de conflit.

souris [4] = test: Antagonism of the anticonvulsant action of diazepam (PTZ) in mice; type: in vivo; details: PTZ 70 mg/kg s.c.; diazépam 1 mg/kg s.c. 25 minutes before, carbamate 10 mg/kg 15 minutes before; 80 % of controls convulse
Experimental: ① Absence d'effets antagonistiques sur l'action anticonvulsivante du diazépam :
20 souris (30 g, ♂) ont été traitées avec 70 mg/kg s.c. de PTZ. Une moitié a servi de contrôle; l'autre moitié a reçu 1 mg/kg s.c. de diazépam 25 minutes avant le PTZ et 10 mg/kg de carbamate 15 minutes avant le PTZ.

souris [5] = test: Antagonism of convulsions induced by méthyl β-carboline in mice; type: in vivo; details: 1 mg/kg s.c. 5 minutes before méthyl β-carboline 1 to 10 mg/kg s.c.
Experimental: Par contre, cette molécule antagonise les effets convulsivants induits par un agoniste inverse de la méthyl-β-carboline.
100 souris (30 g, ♂) sont traitées par des doses croissantes de méthyl B-carboline de 1 mg à 10 mg/kg s.c. La moitié des souris a été prétraitée par 1 mg/kg de méthyl carbamate s.c. 5 minutes avant l'injection de méthyl β-carboline.

souris [6] = test: Convulsions induced by pentylenetetrazol (PTZ) in mice; type: in vivo; details: PTZ 70 mg/kg s.c.
Experimental: 40 souris "Swiss", d, 30 g recoivent 70 mg/kg s.c. de PTZ. Les souris sont divisées en 4 lots : 1 lot contrôle, 1 lot reçoit 10 mg/kg s.c. de méthyl carbamate, 5 minutes avant le PTZ, 1 lot la même dose de méthyl carbamate 15 minutes avant, et le dernier lot une dose de 1 mg/kg de méthyl carbamate 15 minutes avant. 60 % à 80 % des souris présentent des convulsions dans les 4 lots sans différences statistiquement significatives entre les lots.

[7] = tested on: récepteur des benzodiazépines; test: In vivo displacement of tritiated flunitrazepam in mouse brain regions; design: species or system souris; details: for flunitrazépam tritié déplacé: 10 mg/kg; for DE50 (dose effective pour déplacer 50 % du flunitrazépam tritié): s.c.
Experimental: Ceci est démontré par des tests de déplacement du flunitrazépam tritié par le méthyl β-carbamate invivo.
200 µCi/kg de flunitrazépam tritié sont injectées i.v. chez la souris. Après 10 minutes, une dose connue du méthyl β-carbamate (allant de 2,5 mg/kg jusqu'à 10 mg/kg) est injectée s.c. et 10 minutes plus tard, l'animal est sacrifié. Le cerveau est rapidement disséqué. Le cervelet, le cortex et l'hippocampe sont isolés et broyés séparément et ensuite filtrés. La quantité de radio-activité restant sur le filtre est inversement proportionnelle au pouvoir de déplacement du méthyl β-carbamate.

souris [8] = test: Blockade of diazepam-induced sedation, rotarod in mice; type: in vivo; details: 10 mg/kg s.c.; diazépam 2 mg/kg s.c.
Experimental: ②. Blocage de la sédation induite par le diazépam :
20 souris (30 g, ♂) ont été entraînées sur le rotarod (bâton de 2,5 cm 0 tournant à 4 rev/mn) pendant 5 minutes. Les souris entraînées seront utilisées si, lors du test précédant l'injection, elles restent 1 minute sans tomber du bâton. Les souris reçoivent toutes 2 mg/kg s.c. de diazépam et sont testées toutes les 10 minutes. Le pourcentage de souris restant 1 minute sur le bâton est indiqué en ordonnée de la figure.

Babouin photosensible [9] = test: Photosensitive baboon, intermittent light stimulation (SLI); type: in vivo
Text: Cette molécule appartient à la classe des agonistes inverses. Elle provoque des convulsions. Le modèle utilisé est le Babouin photosensible. Sur ce modèle, l'application de stimulation lumineuse intermittente (SLI) par l'intermédiaire d'une lampe stroboscopique provoque des manifestations épileptiques d'amplitude variable. Suivant l'intensité de leur réponse, les animaux sont classés de 0 à + 4.
2 animaux PP 86 et 88 ont été utilisés. Le 86 est + 3 au bout de 30 secondes de SLI, le 5.5.1983. L'administration de l'éthylamino-3-β-carboline (1 mg/kg) réduit cette latence à 10 secondes, 2 minutes après l'injection. lh30 après l'injection, cette latence est toujours très diminuée (20 secondes). […] Ces résultats sont très différents de ceux de la méthyl-S-carboline dont l'effet convulsivant disparait au bout de 20 minutes chez le Babouin.
Le 88 a montré le même type de résultat. Après 15 secondes de SLI, il est + 3 le 5.5.1983. Après l'administration de 2 mg/kg de N-éthyl carboline, la SLI provoque un stade + 3 au bout de 5 secondes. […] Après 5 heures, la latence est toujours raccourcie (10 secondes).

In the case of `O=C(Nc1cc2c(cn1)[nH]c1ccccc12)C(F)(F)F` [-NHCOCF3, trifluoroacétylamino-3-β-carboline], the IC50 [1] is reported as 6.3 µM.
For `COC(=O)c1cc2c(cn1)[nH]c1ccccc12` [méthyl-S-carboline, méthyl β-carbolyne-3-carboxylate], the “time after which the convulsant effect disappears” value (Babouin photosensible [2]) is given as 20 min.
Work on `CC(=O)Nc1cc2c(cn1)[nH]c1ccccc12` [-NHCOCH3, acétylamino-3-β-carboline] yielded an IC50 [1] of 4 µM.
Compound `CCOC(=O)Nc1cc2c(cn1)[nH]c1ccccc12` [-NHCO2CH2CH3, éthoxycarbonylamino-3-β-carboline] has an IC50 [1] of 0.08 µM.
In the case of `CN1C(=O)CN=C(c2ccccc2)c2cc(Cl)ccc21` [diazepam, reference compound], the “effect on the fall of lever presses during conflict” value (souris [3]; 5 mg/kg s.c.) is reported as “s'oppose à cette baisse des appuis”.
For `CN1C(=O)CN=C(c2ccccc2F)c2cc([N+](=O)[O-])ccc21` [Flunitrazepam, reference compound], the IC50 [1] was 0.004 µM.
`O=CNc1cc2c(cn1)[nH]c1ccccc12` [-NHCHO, formylamino-3-β-carboline] gave an IC50 [1] of 4.7 µM.
For `CS(=O)(=O)Nc1cc2c(cn1)[nH]c1ccccc12` [-NHSO2CH3, méthylsulfonylamino-3-β-carboline], the IC50 [1] was 62 µM.
Work on `CCOC(=O)c1cc2c(cn1)[nH]c1ccccc12` [-CO2CH2CH3, ester éthyliquede l'acide β-carboline-3-carboxylique, reference compound] yielded an IC50 [1] of 0.002 µM.
In the case of `Nc1cc2c(cn1)[nH]c1ccccc12` [-NH2, amino-3-β-carboline], the IC50 [1] is reported as 25 µM.
With `COC(=O)Nc1cc2c(cn1)[nH]c1ccccc12` [-NHCO2CH3, méthoxycarbonylamino-3-β-carboline] the “effect on the anxiolytic effect of diazépam (conflict test)” value (souris [3]; given simultaneously with diazepam 5 mg/kg s.c.) was “ne bloque pas cet effet anxiolytique du diazépam”, the “convulsions in mice treated with diazépam + méthyl carbamate” value (souris [4]) was “aucun phénomène convulsif” and the “effect on convulsions induced by méthyl β-carboline” value (souris [5]) was “antagonise d'une façon compétitive”. The “activité agonistique sur les convulsions induites par le PTZ” value (souris [6]) was “dénuée d'activité agonistique”, the “selectivity between brain regions / receptor sub-classes” value ([7]; cervelet (BZ1) versus cortex and hippocampe (BZ1 and BZ2), souris) was “sélectivité pour les récepteurs du cervelet” and the “flunitrazépam tritié déplacé” value ([7]; cervelet) was about 100%. The “DE50 (dose effective pour déplacer 50 % du flunitrazépam tritié)” value ([7]; cervelet, souris) was 4 mg/kg, the “flunitrazépam tritié déplacé” value ([7]; cortex) was about 75% and the “DE50 (dose effective pour déplacer 50 % du flunitrazépam tritié)” value ([7]; cortex, souris) was 5 mg/kg. For the same compound, the “flunitrazépam tritié déplacé” value ([7]; hippocampe) was about 75%, the “DE50 (dose effective pour déplacer 50 % du flunitrazépam tritié)” value ([7]; hippocampe, souris) was 6 mg/kg and the “effect on the sedative effect of diazépam (rotarod)” value (souris [8]) was “antagonise l'effet sédatif du diazépam”. For the same compound, the IC50 [1] was 0.071 µM, the “IC50 compared with éthylamino-3-β-carboline” value ([1]; relative to the IC50 of éthylamino-3-β-carboline) was “presque dix fois plus faible” and the “3H-flunitrazépam déplacé” value ([1]; à haute concentration) was 80%.
With `CCNc1cc2c(cn1)[nH]c1ccccc12` [-NHCH2CH3, éthylamino-3-β-carboline] the “persistence of the effect on latency” value (Babouin photosensible [9]; animal 88, 2 mg/kg) was “persiste une heure”, the “latence du stade + 3 sous SLI” value (Babouin photosensible [9]; animal 88, 2 mg/kg (15 secondes before treatment)) was 5 secondes and the “latence du stade + 3 sous SLI” value (Babouin photosensible [9]; animal 88, 2 mg/kg, après 5 heures) was 10 secondes. The “spontaneous seizure after injection” value (Babouin photosensible [9]; animal PP 86, 1 mg/kg) was “crise épileptique tonico-clonique spontanée”, the “latence du stade + 3 sous SLI” value (Babouin photosensible [9]; animal PP 86, 1 mg/kg, 1h30 après l'injection) was 20 secondes and the “latence du stade + 3 sous SLI” value (Babouin photosensible [9]; animal PP 86, 1 mg/kg, 2 minutes après l'injection (30 secondes before treatment)) was 10 secondes. The IC50 [1] was 0.46 µM.

Source: patent publication EP0148660A1, “Beta-carboline derivatives, process for their preparation and medicaments containing them” (Etablissement Public dit: CENTRE NATIONAL DE LA RECHERCHE …, priority 1983, dated 1985)
